Results reported in patent US20040035690A1, “Method and apparatus for chemical and biochemical reactions using photo-generated reagents” (The Regents Of The University Of Michigan, priority 1998, published 2004).
Entries after “also recorded” stand apart in the source; their conditions may differ. No end group written: not given here. dns = not defined here

What was measured:
[1] = Pb^2+ ion binding assay of oligopeptides on microarray (fluorescence); details: peptide microarray made with acid PGR; lead chloride in buffer
Method: (§1) 5-dimethylaminonaphthalene-1-sulfonyl chloride (dansyl chloride, dns) generated fluorescence was also performed by contacting the solid substrate with a mixture of dns (1.25 mmol) and triethylamine (0.125 mmol) in DMF for 4 h at room temperature. The fluorescence detection was done in the same manner as previously described for FAM with the exception that the excitation wavelength was 365 nm.
For the Pb^2+ ion assay, solid substrates comprising oligopeptides were washed with a buffer solution containing 100 mM HEPES (pH 7.1) and 10% methanol. Samples were then treated with 0.1 mM lead chloride in buffer overnight at room temperature. After washing with buffer solution and methanol the solid substrates were left to dry in an inert atmosphere in the dark.

[2] = test system: mouse MAb DO-1; assay: Oligopeptide immunoassay with MAb DO-1 and FITC-tagged secondary antibody; assay type: binding; details: hexapeptide microarray made with acid PGR, FITC-tagged rabbit anti-mouse IgG
Method: Solid substrates comprising oligopeptids were washed with PBS (phosphate-buffered saline, 25 mM NaH2PO4, 125 mM NaCl, pH 7.4), PBST (PBS, 0.2% (V/V) Tween 20), and PBS, respectively. Next, the solid substrates were then incubated with mouse MAb DO-1, which recognizes amino acid residue 20-25 of human tumor suppressor protein p53, in PBS at room temperature for 2 h. After washing with PBST and PBS, samples were treated with FITC-tagged secondary rabbit anti-mouse immunoglobulin (IgG) overnight at 4° C. Following washing with PBST and PBS, fluorescence of the solid substrate was measured.

[3] = As^3+ ion binding assay of oligopeptides on microarray (fluorescence); details: peptide microarray made with acid PGR; NaAsO2
Method: as §1
For the As^3+ ion assay, the assay was performed by the same procedure as the Pb^2+ assay but the buffer was 10 mM sodium acetate (pH 4.0) containing 100 mM NaCl and 0.1 mM sodium arsenite (NaAsO2) was the metal ion solution.

Row | fluorescence labeling / fluorescence intensity on binding of MAb DO-1 [2] | Substance | fluorescence labeling / fluorescence intensity on Pb^2+ binding [1] | other results
1 | – | dns-Gly-Gly-Gly-Gly (dns-GGGG; reading uncertain; also: printed as dns-Gly-Gly-Gly-Gly) [das-Gly-Gly-Gly-Gly, dansyl-labeled tetrapeptide] | increase is fluorescence is not observed | –
2 | fluorescence intensity is not detected | DSLGKL: hexapeptide analogue of SDLHKL on the microarray (DSLHKL; printed: Asp-Ser-Leu-His-Lys-Leu) | – | –
3 | fluorescence intensity is not detected | SGLHKL [hexapeptide analogue of SDLHKL on the microarray] | – | –
4 | – | dns-Glu-Glu-Glu-Glu | – | fluorescence labeling / fluorescence intensity on As^3+ binding [3]: fluoresence intensity is greatest; also recorded: selective labeling
5 | – | dns-Glu-Cys-Glu-Glu | significant increase in fluorescence intensity; also recorded: selective labeling | –
6 | – | dns-Cys-Cys-Cys-Cys | increase is fluorescence is not observed | –
7 | – | H2N-Glu-Glu-Glu-Glu (EEEE; printed: Glu-Glu-Glu-Glu) [tetrapeptide analogue on the microarray] | increase is fluorescence is not observed | –
8 | selective labeling | SDLHKL [hexapeptide, amino acid residue 20-25 of human p53 protein] | – | fluorescence labeling / fluorescence intensity on binding of MAb DO-1 ([2]; listed as SDLHKL): fluorescence intensity is detected
